From patent US10918727B2, “Peptide with ability to penetrate cell membrane” (ICURE BNP CO., LTD., priority 2016, dated 2021)

Test system: male ICR mice
Assay: Repeated-dose toxicity of nasal insulin formulations (10 days)
Assay type: in vivo, mouse
Details: intranasal once a day for 10 days (insulin 2 IU/kg)
Procedure: The collected blood was centrifuged to isolate serum, and the isolated serum was analyzed using an automatic serum analyzer. […] From the organ tissue, paraffin sections were prepared, and then stained with H&E (Hematoxylin and Eosin). Histopathological examination of the stained tissues was performed using an optical microscope.

Q: How did the “histological evaluation of the nasal mucosal tissue” value turn out when C[C@H](CCC(=O)NCCS(=O)(=O)[O-])[C@H]1CC[C@H]2[C@@H]3CC[C@@H]4C[C@H](O)CC[C@]4(C)[C@H]3C[C@H](O)[C@]12C.[Na+] [sodium taurodeoxycholate] was run?
A: destroyed
